Reference: PubChem BioAssay AID1963435 (Molecular Pharmacology Branch, DTP, NCI, 2024)

System: PANC-1 complex spheroid growth, percent test/control
Assay: Anticancer human tumor PANC-1 cell line growth inhibition [Asc];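 also: spheroids exposed to agents for 7 days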;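 as to viability, T/C: percent viability relative to DMSO vehicle wells taken as 100%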
Details: for viability, T/C: stronger effect = lower value
Method in brief: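 Stromal components (HUVEC and hMSC) are co-assembled with the cancer cells into multicellular spheroids. Drugs are then added singly or paired, at concentrations falling by half-log increments from a clinically achievable maximum, capped at 10 microM without known Cmax.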

`CNC(C)C(=O)NC1CN(S(=O)(=O)c2cccc(S(=O)(=O)N3CCC4CCC(C(=O)NC(c5ccccc5)c5ccccc5)N4C(=O)C(NC(=O)C(C)NC)C3)c2)CCC2CCC(C(=O)NC(c3ccccc3)c3ccccc3)N2C1=O` (configuration not stated) was tested. Which viability, T/C (compound 0.00316 µM) did it give?
Its viability, T/C is 107% [middle of 9 runs].

And the viability, T/C (compound 0.01 µM)?
The viability, T/C was 102% [middle of 9 runs].

What about the viability, T/C (compound 0.0316 µM) of the same compound?
The viability, T/C was 98.1% [middle of 9 runs].

And the viability, T/C (compound 0.1 µM)?
The viability, T/C was 96.1% [middle of 9 runs].

What about the viability, T/C (compound 0.316 µM) of the same compound?
The viability, T/C was 93.5% [middle of 9 runs].

And the viability, T/C (compound 1 µM)?
The viability, T/C was 89.2% [middle of 9 runs].

And the IC50 (compound alone, run of 11/15/2022)?
Its IC50 is over 1000 nM.

And the IC50 (curve of compound)?
Its IC50 is over 1000 nM.

`NC(=O)C(=Cn1cnc(-c2cc(C(F)(F)F)cc(C(F)(F)F)c2)n1)c1cncnc1` + CCN1C(C(=O)NC23CCC(C(=O)O)(CC2)CC3)C(c2cccc(Cl)c2F)C2(C(=O)Nc3cc(Cl)ccc32)C12CCCCC2 was tested. Which IC50 (curve of first compound, second compound 0.00949 µM) did it give?
The IC50 was over 300 nM.

What about the IC50 (curve of first compound, second compound 0.03 µM) of the same compound?
Its IC50 is over 300 nM.

What about the IC50 (curve of first compound, second compound 0.0949 µM) of the same compound?
The IC50 was over 300 nM.

What about the IC50 (curve of first compound, second compound 0.3 µM) of the same compound?
The IC50 was over 300 nM.

What about the IC50 (curve of first compound, second compound 0.949 µM) of the same compound?
Its IC50 is over 300 nM.

And the IC50 (curve of first compound, second compound 3 µM)?
Its IC50 is over 300 nM.

And the viability, T/C (second compound 0.00949 µM, first compound 0.000949 µM)?
Its viability, T/C is 101%.

What about the viability, T/C (second compound 0.00949 µM, first compound 0.003 µM) of the same compound?
The viability, T/C was 90.1%.

What about the viability, T/C (second compound 0.00949 µM, first compound 0.00949 µM) of the same compound?
Its viability, T/C is 90%.

What about the viability, T/C (second compound 0.00949 µM, first compound 0.03 µM) of the same compound?
The viability, T/C was 104%.

What about the viability, T/C (second compound 0.00949 µM, first compound 0.0949 µM) of the same compound?
The viability, T/C was 114%.

And the viability, T/C (second compound 0.00949 µM, first compound 0.3 µM)?
The viability, T/C was 92.2%.

And the viability, T/C (second compound 0.03 µM, first compound 0.000949 µM)?
The viability, T/C was 95.6%.

And the viability, T/C (second compound 0.03 µM, first compound 0.003 µM)?
The viability, T/C was 95.5%.

What about the viability, T/C (second compound 0.03 µM, first compound 0.00949 µM) of the same compound?
The viability, T/C was 98.6%.

And the viability, T/C (second compound 0.03 µM, first compound 0.03 µM)?
The viability, T/C was 91.3%.

What about the viability, T/C (second compound 0.03 µM, first compound 0.0949 µM) of the same compound?
Its viability, T/C is 115%.

What about the viability, T/C (second compound 0.03 µM, first compound 0.3 µM) of the same compound?
Its viability, T/C is 104%.

And the viability, T/C (second compound 0.0949 µM, first compound 0.000949 µM)?
The viability, T/C was 89.6%.

And the viability, T/C (second compound 0.0949 µM, first compound 0.003 µM)?
The viability, T/C was 101%.

And the viability, T/C (second compound 0.0949 µM, first compound 0.00949 µM)?
Its viability, T/C is 90.1%.

What about the viability, T/C (second compound 0.0949 µM, first compound 0.03 µM) of the same compound?
The viability, T/C was 92.4%.

What about the viability, T/C (second compound 0.0949 µM, first compound 0.0949 µM) of the same compound?
Its viability, T/C is 117%.

What about the viability, T/C (second compound 0.0949 µM, first compound 0.3 µM) of the same compound?
Its viability, T/C is 99.5%.

What about the viability, T/C (second compound 0.3 µM, first compound 0.000949 µM) of the same compound?
Its viability, T/C is 100%.

What about the viability, T/C (second compound 0.3 µM, first compound 0.003 µM) of the same compound?
Its viability, T/C is 89.6%.

And the viability, T/C (second compound 0.3 µM, first compound 0.00949 µM)?
Its viability, T/C is 89.1%.

What about the viability, T/C (second compound 0.3 µM, first compound 0.03 µM) of the same compound?
The viability, T/C was 103%.

And the viability, T/C (second compound 0.3 µM, first compound 0.0949 µM)?
Its viability, T/C is 117%.

What about the viability, T/C (second compound 0.3 µM, first compound 0.3 µM) of the same compound?
Its viability, T/C is 93.8%.

And the viability, T/C (second compound 0.949 µM, first compound 0.000949 µM)?
The viability, T/C was 97.5%.

And the viability, T/C (second compound 0.949 µM, first compound 0.003 µM)?
The viability, T/C was 100%.

And the viability, T/C (second compound 0.949 µM, first compound 0.00949 µM)?
The viability, T/C was 105%.

What about the viability, T/C (second compound 0.949 µM, first compound 0.03 µM) of the same compound?
Its viability, T/C is 99.3%.

What about the viability, T/C (second compound 0.949 µM, first compound 0.0949 µM) of the same compound?
Its viability, T/C is 125%.

What about the viability, T/C (second compound 0.949 µM, first compound 0.3 µM) of the same compound?
The viability, T/C was 97.7%.

What about the viability, T/C (second compound 3 µM, first compound 0.000949 µM) of the same compound?
The viability, T/C was 120%.

And the viability, T/C (second compound 3 µM, first compound 0.003 µM)?
Its viability, T/C is 107%.

And the viability, T/C (second compound 3 µM, first compound 0.00949 µM)?
The viability, T/C was 113%.

What about the viability, T/C (second compound 3 µM, first compound 0.03 µM) of the same compound?
Its viability, T/C is 112%.

And the viability, T/C (second compound 3 µM, first compound 0.0949 µM)?
Its viability, T/C is 121%.

And the viability, T/C (second compound 3 µM, first compound 0.3 µM)?
The viability, T/C was 96.6%.

With `CCN1C(C(=O)NC23CCC(C(=O)O)(CC2)CC3)C(c2cccc(Cl)c2F)C2(C(=O)Nc3cc(Cl)ccc32)C12CCCCC2` (configuration not stated) + CNC(C)C(=O)NC1CN(S(=O)(=O)c2cccc(S(=O)(=O)N3CCC4CCC(C(=O)NC(c5ccccc5)c5ccccc5)N4C(=O)C(NC(=O)C(C)NC)C3)c2)CCC2CCC(C(=O)NC(c3ccccc3)c3ccccc3)N2C1=O as the compound, how does the IC50 (curve of first compound, second compound 0.00316 µM) read?
Its IC50 is over 3000 nM.

And the IC50 (curve of first compound, second compound 0.01 µM)?
The IC50 was over 3000 nM.

And the IC50 (curve of first compound, second compound 0.0316 µM)?
The IC50 was over 3000 nM.

And the IC50 (curve of first compound, second compound 0.1 µM)?
The IC50 was over 3000 nM.

What about the IC50 (curve of first compound, second compound 0.316 µM) of the same compound?
The IC50 was over 3000 nM.

And the IC50 (curve of first compound, second compound 1 µM)?
The IC50 was over 3000 nM.

What about the viability, T/C (second compound 0.00316 µM, first compound 0.00949 µM) of the same compound?
Its viability, T/C is 103%.

And the viability, T/C (second compound 0.00316 µM, first compound 0.03 µM)?
Its viability, T/C is 97.6%.

What about the viability, T/C (second compound 0.00316 µM, first compound 0.0949 µM) of the same compound?
Its viability, T/C is 101%.

And the viability, T/C (second compound 0.00316 µM, first compound 0.3 µM)?
Its viability, T/C is 103%.

What about the viability, T/C (second compound 0.00316 µM, first compound 0.949 µM) of the same compound?
Its viability, T/C is 113%.

What about the viability, T/C (second compound 0.00316 µM, first compound 3 µM) of the same compound?
The viability, T/C was 124%.

What about the viability, T/C (second compound 0.01 µM, first compound 0.00949 µM) of the same compound?
The viability, T/C was 109%.

What about the viability, T/C (second compound 0.01 µM, first compound 0.03 µM) of the same compound?
The viability, T/C was 92.5%.

And the viability, T/C (second compound 0.01 µM, first compound 0.0949 µM)?
The viability, T/C was 98.2%.

And the viability, T/C (second compound 0.01 µM, first compound 0.3 µM)?
The viability, T/C was 97.2%.

And the viability, T/C (second compound 0.01 µM, first compound 0.949 µM)?
Its viability, T/C is 106%.

What about the viability, T/C (second compound 0.01 µM, first compound 3 µM) of the same compound?
Its viability, T/C is 126%.

What about the viability, T/C (second compound 0.0316 µM, first compound 0.00949 µM) of the same compound?
Its viability, T/C is 97.2%.

What about the viability, T/C (second compound 0.0316 µM, first compound 0.03 µM) of the same compound?
Its viability, T/C is 99.6%.

And the viability, T/C (second compound 0.0316 µM, first compound 0.0949 µM)?
Its viability, T/C is 101%.

And the viability, T/C (second compound 0.0316 µM, first compound 0.3 µM)?
The viability, T/C was 95.8%.

And the viability, T/C (second compound 0.0316 µM, first compound 0.949 µM)?
Its viability, T/C is 104%.

And the viability, T/C (second compound 0.0316 µM, first compound 3 µM)?
Its viability, T/C is 125%.

And the viability, T/C (second compound 0.1 µM, first compound 0.00949 µM)?
Its viability, T/C is 97.5%.

And the viability, T/C (second compound 0.1 µM, first compound 0.03 µM)?
Its viability, T/C is 99.3%.

What about the viability, T/C (second compound 0.1 µM, first compound 0.0949 µM) of the same compound?
The viability, T/C was 96.7%.

What about the viability, T/C (second compound 0.1 µM, first compound 0.3 µM) of the same compound?
Its viability, T/C is 109%.

What about the viability, T/C (second compound 0.1 µM, first compound 0.949 µM) of the same compound?
Its viability, T/C is 105%.

And the viability, T/C (second compound 0.1 µM, first compound 3 µM)?
The viability, T/C was 121%.

And the viability, T/C (second compound 0.316 µM, first compound 0.00949 µM)?
Its viability, T/C is 99.2%.

What about the viability, T/C (second compound 0.316 µM, first compound 0.03 µM) of the same compound?
Its viability, T/C is 102%.

And the viability, T/C (second compound 0.316 µM, first compound 0.0949 µM)?
Its viability, T/C is 106%.

And the viability, T/C (second compound 0.316 µM, first compound 0.3 µM)?
The viability, T/C was 92.6%.

And the viability, T/C (second compound 0.316 µM, first compound 0.949 µM)?
Its viability, T/C is 103%.

And the viability, T/C (second compound 0.316 µM, first compound 3 µM)?
The viability, T/C was 108%.

What about the viability, T/C (second compound 1 µM, first compound 0.00949 µM) of the same compound?
The viability, T/C was 96.9%.

And the viability, T/C (second compound 1 µM, first compound 0.03 µM)?
The viability, T/C was 103%.

What about the viability, T/C (second compound 1 µM, first compound 0.0949 µM) of the same compound?
Its viability, T/C is 98%.

And the viability, T/C (second compound 1 µM, first compound 0.3 µM)?
The viability, T/C was 101%.

What about the viability, T/C (second compound 1 µM, first compound 0.949 µM) of the same compound?
The viability, T/C was 116%.

What about the viability, T/C (second compound 1 µM, first compound 3 µM) of the same compound?
Its viability, T/C is 107%.
